# Laboratory results: patent US7652029B2, “Therapeutic compound and treatments” (priority 2004, dated 2010)
# What was measured:
# U251 = experiment: NCI multiple cell line test (SRB); assay type: cell-based, human; conditions: U251 (CNS Cancer), 48 h
# RPMI-8226 = experiment: NCI multiple cell line test (SRB); assay type: cell-based, human; conditions: RPMI-8226 (Leukemia), 48 h
# ACHN = experiment: NCI multiple cell line test (SRB); assay type: cell-based, human; conditions: ACHN (Renal Cancer), 48 h
# SK-MEL-2 = experiment: NCI multiple cell line test (SRB); assay type: cell-based, human; conditions: SK-MEL-2 (Melanoma), 48 h
# MCF-7 cells = experiment: Growth response, MTT dye conversion assay; assay type: cell-based, human; conditions: FIG. 7; 48 hours; compared with cisplatin
# MDA-MB-435 = experiment: NCI multiple cell line test (SRB); assay type: cell-based, human; conditions: MDA-MB-435 (Breast Cancer), 48 h
# OVCAR-3 = experiment: NCI multiple cell line test (SRB); assay type: cell-based, human; conditions: OVCAR-3 (Ovarian Cancer), 48 h
# SNB-19 = experiment: NCI multiple cell line test (SRB); assay type: cell-based, human; conditions: SNB-19 (CNS Cancer), 48 h
# NCI-H23 = experiment: NCI multiple cell line test (SRB); assay type: cell-based, human; conditions: NCI-H23 (Non-Small Cell Lung Cancer), 48 h
# NCI-H522 = experiment: NCI multiple cell line test (SRB); assay type: cell-based, human; conditions: NCI-H522 (Non-Small Cell Lung Cancer), 48 h
# EKVX = experiment: NCI multiple cell line test (SRB); assay type: cell-based, human; conditions: EKVX (Non-Small Cell Lung Cancer), 48 h
# [1] = tested on: human endothelial vein cells (HUVECs); experiment: Growth response, MTT dye conversion assay; assay type: cell-based; conditions: FIG. 6; 48 hours; compared with cisplatin
# UACC-257 = experiment: NCI multiple cell line test (SRB); assay type: cell-based, human; conditions: UACC-257 (Melanoma), 48 h
# BT-549 = experiment: NCI multiple cell line test (SRB); assay type: cell-based, human; conditions: BT-549 (Breast Cancer), 48 h
# MDA-MB-231/ATCC = experiment: NCI multiple cell line test (SRB); assay type: cell-based, human; conditions: MDA-MB-231/ATCC (Breast Cancer), 48 h
# PC-3 = experiment: NCI multiple cell line test (SRB); assay type: cell-based, human; conditions: PC-3 (Prostate Cancer), 48 h
# 786-0 = experiment: NCI multiple cell line test (SRB); assay type: cell-based, human; conditions: 786-0 (Renal Cancer), 48 h
# SN12C = experiment: NCI multiple cell line test (SRB); assay type: cell-based, human; conditions: SN12C (Renal Cancer), 48 h
# A549/ATCC = experiment: NCI multiple cell line test (SRB); assay type: cell-based, human; conditions: A549/ATCC (Non-Small Cell Lung Cancer), 48 h
# CCRF-CEM = experiment: NCI multiple cell line test (SRB); assay type: cell-based, human; conditions: CCRF-CEM (Leukemia), 48 h
# HOP-92 cells = experiment: Growth response, MTT dye conversion assay; assay type: cell-based, human; conditions: low doses (FIG. 12 as printed)
# TK-10 = experiment: NCI multiple cell line test (SRB); assay type: cell-based, human; conditions: TK-10 (Renal Cancer), 48 h
# HOP-92 = experiment: NCI multiple cell line test (SRB); assay type: cell-based, human; conditions: HOP-92 (Non-Small Cell Lung Cancer), 48 h
# MCF7 = experiment: NCI multiple cell line test (SRB); assay type: cell-based, human
# SF-268 = experiment: NCI multiple cell line test (SRB); assay type: cell-based, human
# [2] = Homo sapiens, read-out: −log10GI50 (converted)
structure (smiles),measurement,setting,value
COC(=O)C1=C(C(=O)OC)SC2(S1)C(C(=O)OC)=C(C(=O)OC)SC1=C2c2cccc(OC)c2N(C(=O)CN2C(=O)CCC2=O)C1(C)C [MT477],IC50,"U251; Homo sapiens, U-251, read-out: −log10GI50 (converted)",2000 nM
same,−log10LC50,U251,4.72 molar
same,−log10TGI,U251,5.14 molar
same,IC50,RPMI-8226; [2],7.59 µM
same,−log10LC50,RPMI-8226,4.42 molar
same,−log10TGI,RPMI-8226,4.77 molar
same,−log10LC50,ACHN,5.5 molar
same,−log10TGI,ACHN,5.77 molar
same,IC50,ACHN; [2],891 nM
same,IC50,SK-MEL-2; [2],4.68 µM
same,−log10LC50,SK-MEL-2,* (effect not reached at maximum dose of 0.05 millimolar)
same,−log10TGI,SK-MEL-2,4.41 molar
same,growth response,MCF-7 cells,more effective than cisplatin
same,IC50,MDA-MB-435; [2],1700 nM
same,−log10LC50,MDA-MB-435,4.58 molar
same,−log10TGI,MDA-MB-435,5.27 molar
same,IC50,OVCAR-3; [2],813 nM
same,−log10LC50,OVCAR-3,5.39 molar
same,−log10TGI,OVCAR-3,5.74 molar
same,IC50,SNB-19; [2],7.94 µM
same,−log10LC50,SNB-19,4.46 molar
same,−log10TGI,SNB-19,4.78 molar
same,IC50,NCI-H23; [2],955 nM
same,−log10LC50,NCI-H23,5.42 molar
same,−log10TGI,NCI-H23,5.72 molar
same,IC50,NCI-H522; [2],9.33 µM
same,−log10LC50,NCI-H522,* (effect not reached at maximum dose of 0.05 millimolar)
same,−log10TGI,NCI-H522,4.31 molar
same,−log10LC50,EKVX,4.34 molar
same,−log10TGI,EKVX,4.7 molar
same,IC50,EKVX; [2],8.51 µM
same,cytotoxicity profile (growth response),[1],cytotoxicity profile that is similar to cisplatin
same,IC50,UACC-257; [2],1480 nM
same,−log10LC50,UACC-257,4.55 molar
same,−log10TGI,UACC-257,5.53 molar
same,−log10LC50,BT-549,* (effect not reached at maximum dose of 0.05 millimolar)
same,−log10TGI,BT-549,4.86 molar
same,IC50,BT-549; [2],3.55 µM
same,IC50,MDA-MB-231/ATCC; [2],851 nM
same,−log10LC50,MDA-MB-231/ATCC,5.46 molar
same,−log10TGI,MDA-MB-231/ATCC,5.76 molar
same,IC50,PC-3; [2],1450 nM
same,−log10LC50,PC-3,4.64 molar
same,−log10TGI,PC-3,5.35 molar
same,−log10LC50,786-0,5.47 molar
same,−log10TGI,786-0,5.76 molar
same,IC50,786-0; [2],871 nM
same,IC50,SN12C; [2],5.89 µM
same,−log10LC50,SN12C,4.6 molar
same,−log10TGI,SN12C,4.91 molar
same,−log10LC50,A549/ATCC,* (effect not reached at maximum dose of 0.05 millimolar)
same,−log10TGI,A549/ATCC,4.77 molar
same,IC50,A549/ATCC; [2],3.8 µM
same,−log10LC50,CCRF-CEM,* (effect not reached at maximum dose of 0.05 millimolar)
same,−log10TGI,CCRF-CEM,* (effect not reached at maximum dose of 0.05 millimolar)
same,IC50,CCRF-CEM; [2],3.24 µM
same,growth response at low concentrations,HOP-92 cells,"effective even at very low doses, including micromolar dosages"
same,IC50,TK-10; [2],1580 nM
same,−log10LC50,TK-10,4.75 molar
same,−log10TGI,TK-10,5.34 molar
same,−log10LC50,HOP-92,4.6 molar
same,−log10TGI,HOP-92,5.21 molar
same,IC50,HOP-92; [2],1660 nM
same,IC50,"MCF7; Homo sapiens, MCF7 (Breast Cancer), 48 h, read-out: −log10GI50 (converted)",1780 nM
same,GI50,"MCF7; Homo sapiens, NCI-MCF7, MT477 ACTUAL",1580 nM
same,−log10LC50,"MCF7; MCF7 (Breast Cancer), 48 h",* (effect not reached at maximum dose of 0.05 millimolar)
same,−log10TGI,"MCF7; MCF7 (Breast Cancer), 48 h",* (effect not reached at maximum dose of 0.05 millimolar)
same,Activity against breast cancer NCI-MCF7,MCF7; MT477 ACTUAL,Yes
same,GI50,"SF-268; Homo sapiens, SF-268, NCI-SF268, MT477 ACTUAL",2510 nM
same,IC50,"SF-268; Homo sapiens, SF-268 (CNS Cancer), 48 h, read-out: −log10GI50 (converted)",2140 nM
same,Activity against CNS cancer NCI-SF268,SF-268; MT477 ACTUAL,Yes
same,−log10LC50,"SF-268; SF-268 (CNS Cancer), 48 h",* (effect not reached at maximum dose of 0.05 millimolar)
same,−log10TGI,"SF-268; SF-268 (CNS Cancer), 48 h",4.97 molar
